Laboratory results published in the OPERA property sets (Mansouri et al. 2018).

details: 24.0 °C

| Compound | log10 OH rate constant (cm³/molecule/s) |
| --- | --- |
| CSSC | -9.64 |

same assay, conditions: 25.0 °C

| log10 OH rate constant (cm³/molecule/s) | Compound |
| --- | --- |
| -11.3 | CCCC(=O)OCC |
| -10.5 | CCCCOCCCC |
| -12.6 | COC=O |
| -10.2 | CC=CCC |
| -11.1 | CCCOC(=O)CCC |
| -11.6 | CCCOC=O |
| -11.1 | CCCCO |
| -10.5 | C=CCCC |
| -10.7 | CCCOCCC |
| -10.9 | CCOCCOC(=O)C(C)C |
| -11.2 | COCCBr |
| -11 | CCCCCO |
| -11.1 | CCCCCOC(C)=O |
| -10.7 | CCCCCCCCCCCCCCC |
| -10.6 | C=C(C)C(=O)OCCOCC |
| -12.1 | CC(C)(C)OC=O |
| -10.9 | CCCCCCCCCCC |
| -11.7 | CCOC(=O)CC |
| -11.4 | CCCOC(=O)CC |

| log10 OH rate constant (cm³/molecule/s) | Compound |
| --- | --- |
| -10.4 | C=CCCCOC(C)=O |
| -10.5 | C=CCC |
| -11 | CCCCCCC(C)=O |
| -10.8 | CCCCOC |
| -11.6 | COCC(Cl)Cl |
| -11.5 | CCCCOC=O |
| -11.3 | COCCCl |
| -10.2 | C=C(C)CCC |
| -10.9 | CCCCCCCO |
| -10.1 | CCC=C(C)C |
| -10.7 | CCCOCCO |
| -11.3 | CCCO |
| -10.7 | CCCCOCC |
| -10.9 | CCCCCCO |
| -11.5 | CCCC(=O)OC |
| -10.9 | C#CCCCC |
| -10.5 | CCOC=CC(=O)OCC |
| -11.3 | CCCC(C)C |
| -10.5 | CCCCCOCCCCC |

Continued, molecule first:

| Compound | log10 OH rate constant (cm³/molecule/s) |
| --- | --- |
| CC(C)OC(C)C | -11 |
| COC(=O)C(F)(F)F | -13.3 |
| C/C=C\C | -10.2 |
| FC(Cl)C(F)(F)F (configuration not stated) | -14 |
| COCC(F)(F)F | -12.2 |
| C1CC[C@H]2CCC[C@@H]2C1 (racemic) | -10.8 |
| ClCC(Br)CBr (configuration not stated) | -12.4 |
| ClCCCl | -12.6 |
| C/C=C/C(C)C | -10.2 |
| ClCC(Cl)(Cl)Cl | -13.7 |
| Cc1ccc(O)c(C)c1 | -10.1 |
| C=O | -11 |
| Cl/C=C\Cl | -11.6 |
| CC1=CCC2C(C1)C2(C)C (configuration not stated) | -10.1 |
| Cl/C=C\CCl | -11 |
| COC(C)(C)C | -11.5 |
| CCOCCO | -10.8 |
| CCC1CO1 (configuration not stated) | -11.7 |
| CCC(C)=C(C)C | -9.99 |
| C=CC | -10.6 |
| FC(F)OCC(F)(F)F | -13.9 |

| Compound | log10 OH rate constant (cm³/molecule/s) |
| --- | --- |
| FC(F)F | -15.5 |
| CCc1ccccc1 | -11.1 |
| C=CCl | -11.2 |
| CC(F)(F)Cl | -14.5 |
| CC(C)=O | -12.7 |
| Clc1cccc(-c2ccccc2)c1 | -11.3 |
| C1=CC2CCC1CC2 | -10.4 |
| C=C(C)[C@H]1CC=C(C)CC1 | -9.77 |
| CCOC(C)(C)C | -11.1 |
| O=CCl | -12.5 |
| FC(F)(Cl)CCl | -13.8 |
| CC(C)O | -11.3 |
| CC(Cl)(Cl)Cl | -14 |
| CC(=O)OC(C)(C)C | -12.3 |
| CCCCOC(C)=O | -11.3 |
| CC1=CCC2CC1C2(C)C (configuration not stated) | -10.3 |
| COC | -11.5 |
| CC(C)C(C)C(C)C | -11.2 |
| C1CC1 | -13.1 |
| CCOP(=O)(OCC)OCC | -10.3 |
| CO | -12 |

| Compound | log10 OH rate constant (cm³/molecule/s) |
| --- | --- |
| Cc1cccc(C)c1O | -10.2 |
| COP(=O)(SC)SC | -11 |
| CC(C)(C)CO | -11.3 |
| COP(=O)(OC)SC | -11 |
| C=CC/C=C/C | -10 |
| O=C1CCCC1 | -11.5 |
| CC(Cl)Cl | -12.6 |
| C1=CCCC1 | -10.2 |
| Cc1cc(C)cc(O)c1 | -9.95 |
| CC(C)CCO[N+](=O)[O-] | -11.7 |
| COP(=O)(OC)OC | -11.1 |
| Clc1ccccc1-c1ccccc1 | -11.5 |
| Fc1c(F)c(F)c(F)c(F)c1F | -12.8 |
| C=C(Cl)Cl | -11 |
| Cc1cccc(O)c1C | -10.1 |
| C1=CCCCCC1 | -10.1 |
| FC(F)OC(F)(F)F | -14.5 |
| O=[N+]([O-])OC1CCCCC1 | -11.5 |
| CC(=O)Cl | -14 |
| COC(F)(F)F | -13.7 |
| C=CC(=O)OCC | -10.8 |

| Compound | log10 OH rate constant (cm³/molecule/s) |
| --- | --- |
| CCCCCO[N+](=O)[O-] | -11.5 |
| CC(C)(C)CO[N+](=O)[O-] | -12.1 |
| FC(F)(F)C(Cl)Cl | -13.4 |
| Nc1ccccc1 | -9.95 |
| C=CCC(=C)C | -10.1 |
| FC(C(F)C(F)(F)C(F)(F)F)C(F)(F)F (configuration not stated) | -14.5 |
| FC1C(F)(F)OC1(F)F | -14.6 |
| Cc1ccc(C)c(O)c1 | -10.1 |
| C=CCCC(=C)C | -10 |
| FCC(F)F | -13.7 |
| CCC[N+](=O)[O-] | -12.4 |
| ClCC(Cl)Cl | -12.7 |
| C=CC#N | -11.4 |
| FCC(F)(F)F | -14.3 |
| CC(F)(F)C(F)(Cl)Cl | -14.6 |
| C[N+](=O)[O-] | -12.9 |
| Clc1ccc(Cl)c(Cl)c1 | -12.3 |
| Cc1ccc(O)cc1C | -10.1 |
| CCCC[N+](=O)[O-] | -11.8 |
| CCC#N | -12.7 |
